Key:
[1] = Visual interaction of active ingredient with polyelectrolyte PAA; assay type: physicochemical
Procedure: To determine interaction between polyelectrolytes (PE; Table 1) and active ingredients (AI; Table 2) aqueous stock solutions of about 200 g/L of the PE and of the active ingredients were prepared. The polyelectrolytes were diluted in water and stirred on magnetic stirrer for at least 30 minutes until a homogenous clear solution was obtained (ratios and amounts are presented in Table 4). The active ingredients were dissolved in water on magnetic stirrer or, if they weren't water soluble, suspended in water and milled by adding glass beads (1 mm) in a stainless steel metal beaker until they reach a volume-based average particle size below 20 μm (90% of particles below 20 μm), as determined by laser diffraction. After that the mixture was filtered with a sieve to remove glass beads and the filtrate was used for further analysis.
A polyelectrolyte solution, PAA or chitosan, was added to a 100-150 mL glass beaker, followed by water and an active ingredient solution/suspension. The mixture was stirred for at least 4 hours, and samples were observed after at least 16 hours. The visual observable interactions were divided into five categories (see Table 3). The categories were chosen by comparison to a blank sample containing the same concentration of active ingredient in water but without polyelectrolyte. […] Interactions were studied over a large range of active ingredient to polyelectrolyte ratios, including 10.000:1 (w/w), 1000:1 (w/w), 100:1 (w/w), 10:1 (w/w), 1:1 (w/w), 1:10 (w/w), 1:100 (w/w) and 1:1000) (w/w).

[2] = system: Trifolium repens (Clover); assay: Herbicide efficacy of glyphosate on clover; assay type: in vivo
From the text: (§1) The efficacy of glyphosate is often sub-optimal because after drying of the glyphosate active ingredient on the plant tissue the rate of uptake is reduced (dry glyphosate is taken up poorly by the plant tissue). A complex of glyphosate-polycation with improved humectancy properties will remain longer as a wet film on the plant tissue, thereby enhancing uptake of glyphosate in the plant tissue and enhancing its herbicidal activity. In this experiment the effect of a formed complex on efficacy of glyphosate was assessed. The experiment was performed with hard water (500 ppm CaCO3) and with soft water (50 ppm CaCO3).
(§2) The following method was used. Seeds of rye grass and clover were sown in 2 L plastic pots (10 seeds pot) and grown in Lentse Potgrond (Horticoop; Bleiswijk, the Netherlands) in a greenhouse at 22° C. and at light 16 h and dark 8 h, humidity 75%. The experiment was carried out with 2 pots (replications) per treatment. The pots were watered as to keep the plants growing optimal. At the four-five leaf stage, when plants reached a height of 15-20 cm, they were sprayed with the glyphosate treatments with and without PAA (formulations: see Table 12). The spray was such that the plants were wetted completely and uniform. 12 days after the glyphosate treatments, the fresh weight and dry weight of the parts of the plants that were above ground were measured (grams). For dry weight, plants were first dried in an oven at 67 degree Celsius for 48 hours and weight was measured.
(§3) With the method described above rye grass plants were sprayed with two glyphosate formulations: • A. 2700 ppm glyphosate plus 270 ppm complexed with PAA at a 10:1 ratio (glyphosate:PAA; w/w) (formulation see Table 12). • B. 2700 ppm glyphosate without PAA (formulation, see Table 12).

[3] = system: Lolium perenne (Ryegrass); assay: Herbicide efficacy of glyphosate on rye grass; assay type: in vivo; conditions: for Extra reduction in dry weight: complex formation with PAA vs without PAA, first statement of b170; for Extra reduction in dry weight (second statement): second statement of b170
From the text: as §1, §2, §3

[4] = Visual interaction with polyanion sodium lignosulfonate; assay type: physicochemical; conditions: visible complex formation
Humectancy assay = assay type: physicochemical; conditions: dried at 54° C., then 97% relative humidity at 25° C.; weight after/before x 100
Procedure: The complexes of the interaction assay were used to conduct a humectancy assay. […] After reweighing on an analytical balance, the trays were placed in a climate chamber and stored for at least 2 days at 54° C. or until no further weight change was observed. […] The air tight box was 20 cm×12 cm×7 cm. In the box a chicken wire construct was used to create two levels with 10-20 ml of saturated solution of dipotassium sulfate in a petri dish in a lower level, and the samples in an upper level. Boxes were located into an incubator at 25° C. The boxes were incubated for at least 5 days at 25° C. before use to allow equilibration of temperature and humidity. Hereafter, the trays were reweighed.
The change in humectancy by combining a pesticide and polyelectrolyte is expressed as percent value by multiplying the sample weight after incubation (w2) with 100 divided with the sample weight before incubation (w1) using the following equation: […]
To evaluate the effect of the interaction of the active ingredient and polyelectrolyte on humectancy (synergetic/antagonistic/no effect), the determined Humectancy of the samples containing both active ingredient and polyelectrolyte “Humectancy (blend)” was divided by the theoretical value of Humectancy of the blend provided by respective proportion (% AI; % PE) of each pesticide and polyelectrolyte using the following equation: […]
According to this formula, a positive result of more than 1 is indicative of synergy.
The complexes obtained with the method of WO2010035118, with both ratios of 2:1 and 1:5 (PAA:AI) were tested for humectancy. […] For each sample, the test was carried in triplicate.
For each sample, the test was carried in triplicate.

[5] = soft water, complex formation with PAA vs without PAA

Question: Which “Visual observation category, Active ingredient: PAA” value (“Visual observation category” for short) ([1]; ratio active ingredient:PAA 1.000:1 (w/w)) does the source give for `O=C(O)CNCP(=O)(O)O` [Glyphosate, N-(phosphonomethyl)glycine] here?
Answer: The value was “N”.

Question: What about the “Visual observation category” value ([1]; ratio active ingredient:PAA 1:1 (w/w)) of the same compound?
Answer: The value was “N”.

Question: And the “Visual observation category” value ([1]; ratio active ingredient:PAA 1:10 (w/w))?
Answer: The value was “N”.

Question: And the “Visual observation category” value ([1]; ratio active ingredient:PAA 1:100 (w/w))?
Answer: Its value is “N”.

Question: And the “Visual observation category” value ([1]; ratio active ingredient:PAA 1:1000 (w/w))?
Answer: The value was “N”.

Question: What about the “Visual observation category” value ([1]; ratio active ingredient:PAA 10.000:1 (w/w)) of the same compound?
Answer: The value was “N”.

Question: What about the “Extra reduction in dry weight” value ([2]; hard water, complex formation with PAA (Formulation A) vs without PAA (Formulation B)) of the same compound?
Answer: Its value is 74%.

Question: What about the “Extra reduction in fresh weight” value ([2]; hard water, complex formation with PAA vs without PAA) of the same compound?
Answer: Its value is 38%.

Question: And the “Extra reduction in dry weight” value [2, 5]?
Answer: Its value is 47%.

Question: What about the “Extra reduction in fresh weight” value [2, 5] of the same compound?
Answer: Its value is 44%.

Question: What about the “Extra reduction in dry weight” value ([3]; hard water) of the same compound?
Answer: The value was 56%.

Question: And the “Extra reduction in dry weight (second statement)” value ([3]; hard water)?
Answer: The value was 48%.

Question: And the “Extra reduction in dry weight” value ([3]; soft water)?
Answer: Its value is 44%.

Question: What about the “Extra reduction in dry weight (second statement)” value ([3]; soft water) of the same compound?
Answer: Its value is 46%.

Question: And the “Interaction with the polyanion sodium lignosulfonate” value [4]?
Answer: The value was “did not form a visible complex”.

Question: And the Humectancy (Humectancy assay)?
Answer: The Humectancy was 231.3%.
